From patent US9469631B2 (Boehringer Ingelheim International GmbH, priority 2012, dated 2016)

Target: human GPR119 (Homo sapiens (Human), UniProt Q8TDV5)
Test: AlphaScreen cAMP assay in MIN6 cells stably transfected with human GPR119
Assay type: cell-based
Conditions: Min-6/hGPR119 cells, 45 min incubation at room temperature
Protocol: The compounds of formula I according to the invention modulate the activity of the G-protein-coupled receptor GPR119. The effect of the compounds on the activation of GPR119 and on the stimulation of intracellular cAMP concentration is determined using the AlphaScreen cAMP Assay Kit (Cat. No. #6760625R) made by PerkinElmer.
MIN6 cells [Miyazaki J et al. Endocrinology. 1990 July; 127(1):126-32] are stably transfected with an expression vector for human GPR119 cDNA (Acc. No. NP_848566). Min-6/hGPR119 cells are cultured in DMEM, 10% FBS, 50 μM β-mercaptoethanol, 0.3 mg/mL Geniticin, 2 mM GlutaMAX at 37° C. 5% CO2. For the assay, the cells are seeded in Optiplates (white, 384-well, 160W-barcoded, TC, sterile with lid, Cat. No. #6007688 (Perkin Elmer); 10000 cells/well; 50 μl). The plates covered with lids are then incubated for 24 hours at 37° C./5% CO2. After the medium is aspirated from the wells completely, 10 μl of the test compound are added, the compounds are diluted using stimulating buffer (140 mM NaCl, 3.6 mM KCl, 0.5 mM NaH2PO4, 0.5 mM MgSO4, 1.5 mM CaCl2, 10 mM Hepes, 5 mM NaHCO3; pH 7.4. 0.5 mM IBMX and 0.1% BSA, the final DMSO concentration is 1%). After 45 minutes incubation at room temperature (approx. 20° C.), the cAMP concentrations are determined using the AlphaScreen cAMP Assay Kit (Cat. No. #6760625R from PerkinElmer).

Sequence of human GPR119 (Q8TDV5 whole entry): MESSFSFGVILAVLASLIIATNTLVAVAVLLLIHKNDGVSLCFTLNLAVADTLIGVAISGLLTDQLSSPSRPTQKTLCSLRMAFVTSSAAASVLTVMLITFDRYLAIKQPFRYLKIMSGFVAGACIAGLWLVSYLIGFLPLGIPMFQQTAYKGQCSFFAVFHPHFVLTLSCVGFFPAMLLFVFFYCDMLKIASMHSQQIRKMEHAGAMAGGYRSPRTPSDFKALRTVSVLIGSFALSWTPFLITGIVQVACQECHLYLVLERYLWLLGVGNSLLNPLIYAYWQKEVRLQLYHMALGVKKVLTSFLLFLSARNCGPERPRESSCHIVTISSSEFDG

EC50 [nM]	SMILES
650	CC(C)(C)OC(=O)N1CCC(N(C(=O)c2ccc(-c3nnco3)cc2)C2CC2)CC1 [Example 62, 4-[Cyclopropyl-(4-[1,3,4]oxadiazol-2-yl-benzoyl)-amino]-piperidine-1-carboxylic acid tert-butyl ester]
236	CC(C)(C)OC(=O)N1CCC(N(C(=O)c2ccc(-c3ccnnc3)cc2)C2CC2)CC1 [Example 23, 4-[Cyclopropyl-(4-pyridazin-4-yl-benzoyl)-amino]-piperidine-1-carboxylic acid tert-butyl ester]
461	CC(C)(C)OC(=O)N1CCC(N(C(=O)c2ccc(-c3ccc(O)nc3)cc2)C2CC2)CC1 [Example 108, 4-{Cyclopropyl-[4-(6-hydroxy-pyridin-3-yl)-benzoyl]-amino}-piperidine-1-carboxylic acid tert-butyl ester]
229	CN(C)c1ccc(-c2ccc(C(=O)N(C3CC3)C3CCN(C(=O)OC(C)(C)C)CC3)cc2)cn1 [Example 114, 4-{Cyclopropyl-[4-(6-dimethylamino-pyridin-3-yl)-benzoyl]-amino}-piperidine-1-carboxylic acid tert-butyl ester]
45	CC(C)(C)COC(=O)N1CCC(N(C(=O)c2ccc(-c3cnco3)cc2)C2CC2)CC1 [Example 121, 4-[Cyclopropyl-(4-oxazol-5-yl-benzoyl)-amino]-piperidine-1-carboxylic acid 2,2-dimethyl-propyl ester]
855	C[C@H]1CN(C(=O)OC(C)(C)C)CC[C@H]1N(C(=O)c1ccc(-c2cnco2)cc1)C1CC1 (single isomer, unassigned) [Example 47]
317	CC(C)(C)OC(=O)N1CCC(N(C(=O)c2ccc(-c3ccccc3C#N)cc2)C2CC2)CC1 [Example 94, 4-[(2′-Cyano-biphenyl-4-carbonyl)-cyclopropyl-amino]-piperidine-1-carboxylic acid tert-butyl ester]
816	CC(C)(C)OC(=O)N1CCC(N(C(=O)c2ccc(-c3ocnc3I)cc2)C2CC2)CC1 [Example 4, 4-{Cyclopropyl-[4-(4-iodo-oxazol-5-yl)-benzoyl]-amino}-piperidine-1-carboxylic acid tert-butyl ester]
75	Cc1ncoc1-c1ccc(C(=O)N(C2CC2)C2CCN(C(=O)OC(C)(C)C)CC2)cc1 [Example 10, 4-{Cyclopropyl-[4-(4-methyl-oxazol-5-yl)-benzoyl]-amino}-piperidine-1-carboxylic acid tert-butyl ester]
401	COc1ccc(-c2ccc(C(=O)N(C3CC3)C3CCN(C(=O)OC(C)(C)C)CC3)cc2)cc1 [Example 86, 4-[Cyclopropyl-(4′-methoxy-biphenyl-4-carbonyl)-amino]-piperidine-1-carboxylic acid tert-butyl ester]
15	CC1CN(C(=O)OC(C)(C)C)CCC1N(C(=O)c1ccc(-c2cnco2)cc1)C1CC1 (centres unmarked) [Example 2, 4-[Cyclopropyl-(4-oxazol-5-yl-benzoyl)-amino]-3-methyl-piperidine-1-carboxylic acid tert-butyl ester]
8	CC(C)(C)OC(=O)N1CCC(N(C(=O)c2ccc(-c3cnco3)c(F)c2)C2CC2)CC1 [Example 28, 4-[Cyclopropyl-(3-fluoro-4-oxazol-5-yl-benzoyl)-amino]-piperidine-1-carboxylic acid tert-butyl ester]
256	CCOc1ccc(-c2ccc(C(=O)N(C3CC3)C3CCN(C(=O)OC(C)(C)C)CC3)cc2)cc1 [Example 87, 4-[Cyclopropyl-(4′-ethoxy-biphenyl-4-carbonyl)-amino]-piperidine-1-carboxylic acid tert-butyl ester]
99	CC(C)(C)OC(=O)N1CCC(N(C(=O)c2ccc(-c3ccno3)cc2)C2CC2)CC1 [Example 57, 4-[Cyclopropyl-(4-isoxazol-5-yl-benzoyl)-amino]-piperidine-1-carboxylic acid tert-butyl ester]
203	CC(C)(C)OC(=O)N1CCC(N(C(=O)c2ccc(-c3ccc(OC(F)(F)F)cc3)cc2)C2CC2)CC1 [Example 88, 4-[Cyclopropyl-(4′-trifluoromethoxy-biphenyl-4-carbonyl)-amino]-piperidine-1-carboxylic acid tert-butyl ester]
34	O=C(OC1CCCC1)N1CCC(N(C(=O)c2ccc(-c3cnco3)cc2)C2CC2)CC1 [Example 128, 4-[Cyclopropyl-(4-oxazol-5-yl-benzoyl)-amino]-piperidine-1-carboxylic acid cyclopentyl ester]

EC50 [nM]	SMILES
192	CC(C)(C)OC(=O)N1CCC(N(C(=O)c2ccc(-c3noc(Cc4ccccc4)n3)cc2)C2CC2)CC1 [Example 68, 4-{[4-(5-Benzyl-[1,2,4]oxadiazol-3-yl)-benzoyl]-cyclopropyl-amino}-piperidine-1-carboxylic acid tert-butyl ester]
79	CC(C)(C)OC(=O)N1CCC(N(C(=O)c2ccc(-c3ccc(NS(C)(=O)=O)cc3)cc2)C2CC2)CC1 [Example 92, 4-[Cyclopropyl-(4′-methanesulfonylamino-biphenyl-4-carbonyl)-amino]-piperidine-1-carboxylic acid tert-butyl ester]
45	CC(C)(C)OC(=O)N1CCC(N(C(=O)c2ccc(-c3cnco3)cc2F)C2CC2)CC1 [Example 35, 4-[Cyclopropyl-(2-fluoro-4-oxazol-5-yl-benzoyl)-amino]-piperidine-1-carboxylic acid tert-butyl ester]
96	Cc1nc(-c2ccccc2)cn1-c1ccc(C(=O)N(C2CC2)C2CCN(C(=O)OC(C)(C)C)CC2)cc1 [Example 84, 4-{Cyclopropyl-[4-(2-methyl-4-phenyl-imidazol-1-yl)-benzoyl]-amino}-piperidine-1-carboxylic acid tert-butyl ester]
469	Cc1cncnc1-c1ccc(C(=O)N(C2CC2)C2CCN(C(=O)OC(C)(C)C)CC2)cc1 [Example 27, 4-{Cyclopropyl-[4-(5-methyl-pyrimidin-4-yl)-benzoyl]-amino}-piperidine-1-carboxylic acid tert-butyl ester]
75	CCOC(=O)c1cnn(-c2ccc(C(=O)N(C3CC3)C3CCN(C(=O)OC(C)(C)C)CC3)cc2)c1C [Example 78, 4-{Cyclopropyl-[4-(4-ethoxycarbonyl-5-methyl-pyrazol-1-yl)-benzoyl]-amino}-piperidine-1-carboxylic acid tert-butyl ester]
832	CC(C)(C)OC(=O)N1CCC(N(C(=O)c2ccc(-n3ccnc3)cc2)C2CC2)CC1 [Example 52, 4-[Cyclopropyl-(4-imidazol-1-yl-benzoyl)-amino]-piperidine-1-carboxylic acid tert-butyl ester]
127	CC(C)(C)OC(=O)N1CCC(N(C(=O)c2ccc(-n3cncn3)cc2)C2CC2)CC1 [Example 63, 4-[Cyclopropyl-(4-[1,2,4]triazol-1-yl-benzoyl)-amino]-piperidine-1-carboxylic acid tert-butyl ester]
71	COc1ccc(OC(=O)N2CCC(N(C(=O)c3ccc(-c4cnco4)cc3)C3CC3)CC2)cc1 [Example 120, 4-[Cyclopropyl-(4-oxazol-5-yl-benzoyl)-amino]-piperidine-1-carboxylic acid 4-methoxy-phenyl ester]
659	CC(C)(C)OC(=O)N1CCC(N(C(=O)c2ccc(-c3ccco3)cc2)C2CC2)CC1 [Example 65, 4-[Cyclopropyl-(4-furan-2-yl-benzoyl)-amino]-piperidine-1-carboxylic acid tert-butyl ester]
177	CC(C)(C)OC(=O)N1CCC(N(C(=O)c2ccc(-c3ccc(S(C)(=O)=O)cc3)cc2)C2CC2)CC1 [Example 93, 4-[Cyclopropyl-(4′-methanesulfonyl-biphenyl-4-carbonyl)-amino]-piperidine-1-carboxylic acid tert-butyl ester]
19	CC1(OC(=O)N2CCC(N(C(=O)c3ccc(-c4ccncc4C#N)cc3)C3CC3)CC2)CC1 [Example 32, 4-{[4-(3-Cyano-pyridin-4-yl)-benzoyl]-cyclopropyl-amino}-piperidine-1-carboxylic acid 1-methyl-cyclopropyl ester]
7	C[C@@H]1CN(C(=O)OC(C)(C)C)CC[C@@H]1N(C(=O)c1ccc(-c2cnco2)cc1)C1CC1 (single isomer, unassigned) [Example 46]
148	CC(C)(C)OC(=O)N1CCC(N(C(=O)c2ccc(-n3cnc(-c4ccccc4)c3)c(Cl)c2)C2CC2)CC1 [Example 81, 4-{[3-Chloro-4-(4-phenyl-imidazol-1-yl)-benzoyl]-cyclopropyl-amino}-piperidine-1-carboxylic acid tert-butyl ester]
48	CC(C)(C)OC(=O)N1CCC(N(C(=O)c2ccc(-c3cncc(C#N)c3)cc2)C2CC2)CC1 [Example 113, 4-{[4-(5-Cyano-pyridin-3-yl)-benzoyl]-cyclopropyl-amino}-piperidine-1-carboxylic acid tert-butyl ester]
240	CC(C)(C)OC(=O)N1CCC(N(C(=O)c2ccc(-c3cn[nH]c3)cc2)C2CC2)CC1 [Example 12, 4-{Cyclopropyl-[4-(1H-pyrazol-4-yl)-benzoyl]-amino}-piperidine-1-carboxylic acid tert-butyl ester]
